Data on one molecule can be found in PMC11763264, “Antibacterial and Antifungal Activities of Linear and Cyclic Peptides Containing Arginine, Tryptophan, and Diphenylalanine” (Antibiotics, 2025).

Test [1] has as its system S. pneumoniae (ATCC 51938). In words: microbe, parasite or virus in culture. As to conditions: ATCC 51938, 24 h. It counts as cell-based, Streptococcus pneumoniae. The protocol:
(§1) The antibacterial activity of all ten synthesized linear and cyclic peptides was evaluated against MRSA (ATCC BAA-1556), S. aureus (ATCC 29213), E. faecium (ATCC 700221), S. pneumoniae (ATCC 51938), E. faecalis (ATCC 29212), B. subtilis (ATCC-6633), K. pneumoniae (ATCC BAA-1705), P. aeruginosa (ATCC 27883), and E. coli (ATCC 25922). Meropenem and daptomycin were used as positive controls for this study. Certain peptides are marked as “NT” (not tested) against specific bacterial strains based on initial screening data. […] The MIC was determined by micro-broth dilution protocol, where the minimal concentrations were determined to be in wells with no visible bacterial growth.
(§2) All bacterial experiments were carried out in a laminar flow hood (Labconco, Kansas City, MO, USA). The bacterial strains were cultured following the guidelines set by the Clinical Laboratory Standards Institute (CLSI). Antibacterial assays were performed using a standard microtiter dilution method as described in previous studies. The minimum inhibitory concentration (MIC) refers to the lowest peptide concentration that inhibits bacterial growth in wells with no visible bacterial growth. MIC was determined by micro-broth dilution. Bacteria were cultured overnight in 6 mL of Luria Broth (LB). A stock solution of the peptide was prepared in water and DMSO, and a test compound solution with a concentration of 256 µg/mL was made in LB. Meropenem, with a solubility of 8 mg/mL, was prepared as a stock solution at 4 mg/500 µL. An aliquot of the overnight bacteria culture was diluted in normal saline (NS, 1 mL) until achieving a 0.5 McFarland turbidity (1.5 × 10^8 bacterial cell CFU/mL). A 0.5 McFarland compared solution (60 µL) was added to Mueller Hinton Broth (MH) 8940 µL to generate a 1/150 dilution. A 200 µL test compound solution was added to the first well of a 96-well plate, and the remaining wells (2–12) were filled with 100 µL of MH media using a multi-channel pipette from a sterile reservoir. A concentration of […] of the tested peptides was prepared from a stock solution of the samples for testing in Muller−Hinton broth MH media. Peptides stock solution was dissolved in 5% DMSO in water, and the final concentration of DMSO in the first well of assay plate was 2.5% DMSO/H2O and diluted across the assay plate.
(§3) A 100 µL sample from well 1 was pipetted into well 2, and the solution was mixed thoroughly by pipetting up and down. Next, 100 µL was transferred from well 2 to well 3, followed by thorough mixing. This 2-fold serial dilution process continued through well 11, with no additions made to well 12. The final 100 µL from well 11 was discarded. After completing the serial dilution, each well (1–12) contained 100 µL of solution. The bacterial culture in MH media was vortexed and transferred to a sterile reservoir, from which 100 µL was added to each well using a 12-channel pipette. (Note: The dilutions were further diluted upon adding the bacterial solution; for example, the concentration in well 1 started at […] after the addition of the bacterial culture.) The plates were incubated overnight at 37 °C for 24 h. All experiments were performed in triplicate and repeated twice, with controls consisting of bacteria in MH media and positive controls of daptomycin or meropenem.

The test system of test [2] is C. parapsilosis (ATCC 22019). In words: microbe, parasite or virus in culture. Conditions: ATCC 22019, 24 h. It counts as cell-based, Candida parapsilosis.
Test [3] relates to K. pneumoniae (ATCC BAA-1705). In words: microbe, parasite or virus in culture. It counts as cell-based, Klebsiella pneumoniae. Conditions: ATCC BAA-1705, 24 h. In outline: (§4)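 Broth microdilution, MH broth, CLSI. 2-fold peptide series from 256 µg/mL […], 2.5% DMSO in first well. Inoculum 0.5 McFarland diluted 1/150. 37 °C, 24 h; MIC = no visible growth.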
The subject of test [4] is MRSA (ATCC BAA-1556). In words: microbe, parasite or virus in culture. As to conditions: ATCC BAA-1556, 24 h. It counts as cell-based, Methicillin-Resistant Staphylococcus aureus. In outline:
as §4

The subject of test [5] is E. faecium (ATCC 700221). In words: microbe, parasite or virus in culture. It counts as cell-based, Enterococcus faecium. Conditions: ATCC 700221, 24 h. As to the method: as §1, §2, §3
Test [6] concerns E. coli (ATCC 25922). In words: microbe, parasite or virus in culture. It counts as cell-based, Escherichia coli. Conditions: ATCC 25922, 24 h. The gist of the method:
as §4

Test [7] concerns S. aureus (ATCC 29213). In words: microbe, parasite or virus in culture. It counts as cell-based, Staphylococcus aureus. Conditions: ATCC 29213, 24 h. The protocol:
as §1, §2, §3

Test [8] relates to B. subtilis (ATCC-6633). In words: microbe, parasite or virus in culture. It counts as cell-based, Bacillus subtilis. Conditions: ATCC-6633, 24 h. The protocol:
as §1, §2, §3

For test [9], the system named is P. aeruginosa (ATCC 27883). In words: microbe, parasite or virus in culture. It counts as cell-based, Pseudomonas aeruginosa. Conditions: ATCC 27883, 24 h. In outline:
as §4

In test [10] the test system is Gram-negative strains: K. pneumoniae, P. aeruginosa, and E. coli. In words: MIC, micro-broth dilution, span over Gram-negative strains. It counts as cell-based. As to the method:
as §1
All bacterial experiments were carried out in a laminar flow hood (Labconco, Kansas City, MO, USA). The bacterial strains were cultured following the guidelines set by the Clinical Laboratory Standards Institute (CLSI). Antibacterial assays were performed using a standard microtiter dilution method as described in previous studies. The minimum inhibitory concentration (MIC) refers to the lowest peptide concentration that inhibits bacterial growth in wells with no visible bacterial growth. MIC was determined by micro-broth dilution. Bacteria were cultured overnight in 6 mL of Luria Broth (LB). […]

In brackets after ≈: the same amount, converted by molar mass. Several values for one entry are separate records, joined by “and”; a condition that tells them apart may be missing. Equal values may be shown once. Non-standard residues stand in square brackets, D forms with d. Residues, ends and D or L forms follow the SMILES beside them. Dip = N[C@H](C(=O)O)C(c1ccccc1)c1ccccc1

On to `N=C(N)NCCC[C@@H]1NC(=O)[C@H](C(c2ccccc2)c2ccccc2)NC(=O)[C@H](CCCNC(=N)N)NC(=O)[C@H](C(c2ccccc2)c2ccccc2)NC(=O)[C@H](CCCNC(=N)N)NC(=O)[C@H](C(c2ccccc2)c2ccccc2)NC(=O)[C@H](CCCNC(=N)N)NC(=O)[C@H](C(c2ccccc2)c2ccccc2)NC(=O)[C@H](CCCNC(=N)N)NC(=O)[C@H](C(c2ccccc2)c2ccccc2)NC1=O` [[DipR]5] (cyclo([Dip]R[Dip]R[Dip]R[Dip]R[Dip]R)), for which the MIC is 0.39 µM (≈ 0.74 µg/mL) in [1]; 6.6 µM (≈ 12.5 µg/mL) in test [2]; 25 µM (≈ 47.4 µg/mL) in test [3]; 3.1 µM (≈ 5.88 µg/mL) in test [4]; 0.78 µM (≈ 1.48 µg/mL) in test [5]; 12.5 µM (≈ 23.7 µg/mL) in [6]. For the same molecule, the MIC in [7] came out at 3.1 µM (≈ 5.88 µg/mL); in [8], 6.3 µM (≈ 12 µg/mL); in test [9], 25 µM (≈ 47.4 µg/mL). For the same molecule, the “MIC values against Gram-negative strains” value in [10] was 12.5–25 µM and 23.8–47.6 µg/mL.
